Drawing on PubChem BioAssay (NCI), this text covers GI50 and TGI for 22 compounds.

Each structure is given as a SMILES string. Several values for one entry are separate records, joined by “and”; a condition that tells them apart may be missing. Identical values can stand only once.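 How tested: cells in 96-well plates exposed to compound for 48 hours at five concentrations. GI50 is the concentration that inhibits growth by half. The concentration for full growth arrest is given as TGI.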 Bounds are passed on as bounds.

Some test systems named below: MDA-N; MCF7 breast; MDA-MB-231 breast; BT-549 breast; DLD-1 colon; HOP-18 NSCLC; KM20L2 colon; DMS 114 small cell lung; XF 498 CNS.
Assay in all cases: growth of human tumour cells (NCI), 48 h

On to `CC[C@@]1(OC(=O)CN)C(=O)OCc2c1cc1n(c2=O)Cc2cc3cc4c(cc3nc2-1)OCO4`, for which the GI50 was below 0.01 µM in the test on MDA-N, below 0.01 µM with MCF7 breast, 0.787 µM in the test on MDA-MB-231 breast and 0.0157 µM in the test on BT-549 breast. Besides, the TGI with MDA-N is 2.27 µM; in the test on MCF7 breast it was above 100 µM; in the test with MDA-MB-231 breast, above 23.7 µM; in the test on BT-549 breast, 0.552 µM.
On to `O=C1c2cccc3cc([N+](=O)[O-])cc(c23)C(=O)N1NC1=NCCN1`, for which the TGI in the test with DLD-1 colon, in the test with HOP-18 NSCLC, in the test on KM20L2 colon, with DMS 114 small cell lung and with XF 498 CNS was above 100 µM each time.
Regarding `CC(=O)[CH-]C(=O)c1ccccc1.CC(=O)[CH-]C(=O)c1ccccc1.COc1cccc([O-])c1[O-].[Ti+4]`, the values for the GI50 in the test with DLD-1 colon, with HOP-18 NSCLC and in the test with KM20L2 colon were 69.2 µM, 25.9 µM and 52.2 µM, respectively. In addition, the TGI in the test with DLD-1 colon is above 100 µM; in the test on HOP-18 NSCLC it was 63.5 µM; in the test on KM20L2 colon it was above 100 µM.
Turning to `CN1C(OCc2ccccc2)c2c(ccc3c2OCO3)C2C=Cc3cc4c(cc3C21)OCO4` (stereo unspecified), the TGI with DLD-1 colon came out at 1.65 µM; in the test on HOP-18 NSCLC, 2.61 µM; with KM20L2 colon, 2.95 µM; with DMS 114 small cell lung it was 0.854 µM.
As for `CC(=O)Nc1ccc(-c2c3nc(c(-c4cc5ccccc5[n+](C)c4)c4ccc([nH]4)c(-c4ccc(NC(C)=O)cc4)c4nc(c(-c5cc6ccccc6[n+](C)c5)c5ccc2[nH]5)C=C4)C=C3)cc1`, the GI50 was 11.2 µM in the test with MDA-N, 34.3 µM with MCF7 breast, 8.1 µM in the test with MDA-MB-231 breast and 17 µM with BT-549 breast. In addition, the TGI in the test with MDA-N is 36.7 µM; in the test with MCF7 breast, above 50 µM; in the test with MDA-MB-231 breast it was 29.7 µM; with BT-549 breast, above 50 µM.
In the case of `CC1(C)CCC[C@@]2(C)C1C[C@H](O)[C@@]1(C)O[C@@](C)([C@H](O)CO)CCC21` (stereo partly specified), the TGI in the test with HOP-18 NSCLC is above 100 µM; in the test on KM20L2 colon, above 100 µM; with DMS 114 small cell lung it was 90.2 µM; in the test on XF 498 CNS it was above 100 µM.
`N#CCCN(CCC#N)C(=O)c1cccc(C(=O)N(CCC#N)CCC#N)c1`: the TGI with DLD-1 colon is above 100 µM; in the test on KM20L2 colon, above 63.8 µM; in the test on DMS 114 small cell lung, above 100 µM; with XF 498 CNS, above 100 µM.
Take `CN(C)c1ccc2c(c1)CN1C(=O)c3ccccc3C1=N2`: the GI50 with DLD-1 colon is above 100 µM; in the test with HOP-18 NSCLC, 6.02 µM; in the test on DMS 114 small cell lung it was above 100 µM; with XF 498 CNS, above 100 µM. Besides, the TGI in the test with DLD-1 colon, in the test with HOP-18 NSCLC, with DMS 114 small cell lung and in the test with XF 498 CNS was above 100 µM each time.
Regarding `O=C(CCN1CCOCC1)Nc1ccc(F)cc1F`, the TGI with MDA-N, with MCF7 breast, in the test on MDA-MB-231 breast and in the test on BT-549 breast was above 100 µM in each case.
For `COc1ccc(CN2C(=O)C(Cc3cc(OC)c(OC)c(C)c3OC)NC(=O)/C2=C/c2cc(OC)c(OC)c(C)c2OC)cc1` (stereo unspecified), the TGI in the test on DLD-1 colon was above 100 µM; in the test on HOP-18 NSCLC it was 65.2 µM; with KM20L2 colon, 59.2 µM; in the test on DMS 114 small cell lung, 97.3 µM.
For the compound `Cc1cc(=O)oc2c(CN3CCCCC3)c(O)ccc12`, the TGI in the test on MDA-N, in the test on MCF7 breast, with MDA-MB-231 breast and in the test on BT-549 breast was above 100 µM throughout.
As for `[N-]=[N+]=Nc1ccc(CCN2CCN(c3cccc(C(F)(F)F)c3)CC2)cc1I`, the TGI in the test with KM20L2 colon is above 100 µM.
`CC1(C)OC(=O)[C@@](C)([C@H](O)c2ccccc2)O1`: the TGI in the test with DLD-1 colon, with KM20L2 colon, with DMS 114 small cell lung and in the test on XF 498 CNS was above 100 µM each time.
As for `CC(N=C(N)N)C(=O)O` (stereo unspecified), the TGI in the test with MDA-N, in the test with MCF7 breast, in the test on MDA-MB-231 breast and with BT-549 breast was above 100 µM each time.
On to `Cc1ccc(NC(=O)CC/C(CC(=O)C(C)(C)C)=N/NC(=O)C(N)=O)cc1C`, for which the TGI with DLD-1 colon, in the test on HOP-18 NSCLC, with KM20L2 colon, in the test on DMS 114 small cell lung and in the test on XF 498 CNS was above 100 µM throughout.
In the case of `COc1cc2ccccc2c2cc([N+](=O)[O-])oc12`, the TGI worked out at 0.849 µM in the test with MDA-N, 15.8 µM with MCF7 breast, 5.8 µM with MDA-MB-231 breast and 7.16 µM in the test with BT-549 breast.
For the compound `Nc1ncnc2c1ncn2C1OC(CSC(F)(F)F)C(O)C1O` (stereo unspecified), the TGI in the test with DLD-1 colon, with HOP-18 NSCLC, in the test with KM20L2 colon and with DMS 114 small cell lung was above 100 µM throughout.
Turning to `Cc1onc(-c2c(F)cccc2Cl)c1-c1ncc(-c2ccc(Cl)cc2)o1`, the GI50 in the test with MCF7 breast is 4.49 µM; with MDA-MB-231 breast, 6.5 µM; in the test with BT-549 breast, 6.5 µM. Besides, the TGI with MCF7 breast, in the test on MDA-MB-231 breast and in the test on BT-549 breast was above 100 µM in each case.
`CC1(C)C(c2ccccc2)=NN(O)c2ccccc21`: the TGI in the test with DLD-1 colon, in the test with HOP-18 NSCLC and in the test with KM20L2 colon was above 100 µM throughout.
In the case of `N#CNC(N)=NCCO`, the TGI in the test with DLD-1 colon, with HOP-18 NSCLC, in the test on KM20L2 colon, in the test on DMS 114 small cell lung and in the test on XF 498 CNS was above 100 µM throughout.
With `COC(=O)CCC(C)[C@H]1CCC2C3C(C[C@H](OC(C)=O)[C@@]21C)[C@@]1(C)CCC2(C[C@H]1C[C@H]3OC(C)=O)OOC1(CCC(C)CC1)OO2` (stereo partly specified), the TGI in the test on MDA-N, in the test on MCF7 breast, in the test with MDA-MB-231 breast and in the test with BT-549 breast was above 100 µM throughout. In addition, the GI50 in the test with MCF7 breast is 5.62 µM and 38.4 µM; with BT-549 breast, 6.42 µM and 57 µM.
Take `C[C@@H](C1CCC2C3C(=CC(=O)[C@@]21C)[C@H](C)[C@]1(CCC(=O)O1)C1OC31)[C@H]1C[C@]2(C)O[C@@](C)(O1)OC2(C)C` (stereo partly specified): the TGI with DLD-1 colon, in the test on HOP-18 NSCLC, in the test with KM20L2 colon, in the test on DMS 114 small cell lung and with XF 498 CNS was above 100 µM each time.
